The results in this text go back to PubChem BioAssay (NCI).

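Results reflect a 48-hour exposure of cells in 96-well plates to compound at five concentrations. TGI marks complete inhibition of growth.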

Some test systems named below: HS 578T breast; HOP-62 NSCLC; UACC-62 melanoma; CCRF-CEM leukemia; U251 CNS; HL-60(TB) leukemia; UO-31 renal; T-47D breast; SK-MEL-28 melanoma; SF-268 CNS; MDA-N; A549 NSCLC; SW-620 colon; MDA-MB-231 breast; HOP-92 NSCLC; OVCAR-5 ovarian; KM12 colon; SF-295 CNS; SNB-19 CNS; M14 melanoma.
Assay in all cases: NCI anticancer screen, dose series, 48 h

Turning to `Nc1ncc(Br)c(NCC2(CO)CCC2)n1`, the TGI in the test with HS 578T breast, with HOP-62 NSCLC, in the test on UACC-62 melanoma, with CCRF-CEM leukemia, in the test with U251 CNS and in the test with HL-60(TB) leukemia was above 100 µM throughout. The TGI with UO-31 renal was above 100 µM; with T-47D breast it was 63.4 µM; in the test with SK-MEL-28 melanoma it was above 100 µM; with SF-268 CNS, above 100 µM; with MDA-N, above 100 µM; in the test with A549 NSCLC, above 100 µM. For the same compound, the TGI in the test on SW-620 colon, with MDA-MB-231 breast, with HOP-92 NSCLC, with OVCAR-5 ovarian, in the test on KM12 colon and in the test with SF-295 CNS was above 100 µM throughout.
Consider `Cc1ccc(Cc2n[nH]c(=O)[nH]2)cc1`, for which the TGI with HS 578T breast, in the test on HOP-62 NSCLC, in the test with UACC-62 melanoma, in the test with CCRF-CEM leukemia, with U251 CNS and in the test on HL-60(TB) leukemia was above 100 µM in each case. The TGI in the test on UO-31 renal, in the test with T-47D breast, in the test with SK-MEL-28 melanoma, in the test on MDA-N, in the test on A549 NSCLC and in the test on SW-620 colon was above 100 µM each time. Moreover, the TGI in the test with MDA-MB-231 breast, with HOP-92 NSCLC, in the test on OVCAR-5 ovarian, in the test on SNB-19 CNS, in the test with KM12 colon and in the test on SF-295 CNS was above 100 µM throughout. The compound further returned a TGI with M14 melanoma above 100 µM.
Turning to `Cc1nnc2n1N=C(c1ccccc1)/C(=C/c1ccc(-c3ccc(Cl)cc3)o1)S2`, the TGI in the test on HS 578T breast was above 100 µM; in the test with HOP-62 NSCLC it was 49.8 µM; in the test with UACC-62 melanoma it was 29.1 µM; with CCRF-CEM leukemia it was 16.4 µM; in the test on U251 CNS, 24.4 µM; in the test with HL-60(TB) leukemia, 28.4 µM. Moreover, the TGI in the test on UO-31 renal turned out to be 26.5 µM; in the test with T-47D breast, 42.4 µM; in the test with SF-268 CNS, 33.2 µM; in the test on MDA-N, 34 µM; with A549 NSCLC, 49.4 µM; in the test with SW-620 colon, 47.7 µM. The TGI stood at 33 µM in the test on MDA-MB-231 breast; 32.6 µM with HOP-92 NSCLC; 39.9 µM with OVCAR-5 ovarian; 35 µM with SNB-19 CNS; 32.4 µM in the test on KM12 colon; 49.9 µM in the test on SF-295 CNS. The TGI with M14 melanoma stood at 36.6 µM.
On to `O=C1NC(N/N=C/C(O)C(O)C(O)C(O)CO)=N/C1=C\c1ccco1` (stereo not given), for which the TGI in the test with HS 578T breast, in the test with HOP-62 NSCLC, in the test with UACC-62 melanoma, in the test on CCRF-CEM leukemia, in the test with U251 CNS and with HL-60(TB) leukemia was above 100 µM in each case. Also, the TGI in the test with T-47D breast, in the test with SK-MEL-28 melanoma, in the test with SF-268 CNS, in the test on MDA-N, in the test with A549 NSCLC and in the test with SW-620 colon was above 100 µM each time. Also, the TGI in the test on MDA-MB-231 breast, in the test on HOP-92 NSCLC, in the test with OVCAR-5 ovarian, with SNB-19 CNS, with KM12 colon and in the test on SF-295 CNS was above 100 µM in each case. This compound gave a TGI in the test on M14 melanoma above 100 µM.
For `CN1Cc2ccccc2S(=O)(=O)n2cccc2C1=O`, the TGI in the test with HS 578T breast, in the test on HOP-62 NSCLC, in the test with UACC-62 melanoma, with CCRF-CEM leukemia, in the test on U251 CNS and with HL-60(TB) leukemia was above 100 µM each time. The TGI with UO-31 renal, in the test with T-47D breast, with SK-MEL-28 melanoma, with MDA-N, in the test on A549 NSCLC and in the test on SW-620 colon was above 100 µM throughout. In addition, the TGI with MDA-MB-231 breast, in the test on HOP-92 NSCLC, in the test with OVCAR-5 ovarian, in the test with KM12 colon and with SF-295 CNS was above 100 µM in each case.
Take `c1ccc(C(C2=Nc3cccc4cccc(c34)N2)c2ccccc2)cc1`: the TGI in the test on HS 578T breast is 81.8 µM; in the test on HOP-62 NSCLC it was 56.6 µM; with UACC-62 melanoma it was 32.8 µM; in the test on CCRF-CEM leukemia, above 100 µM; in the test on U251 CNS, 35.3 µM; in the test with HL-60(TB) leukemia, above 100 µM. In addition, the TGI is 51.2 µM in the test on UO-31 renal; 37 µM with T-47D breast; 52 µM in the test on SK-MEL-28 melanoma; 66.1 µM in the test with SF-268 CNS; 49.3 µM in the test with MDA-N; above 100 µM in the test with A549 NSCLC. For the same compound, the TGI was above 100 µM in the test with SW-620 colon; above 100 µM with MDA-MB-231 breast; 44 µM in the test with HOP-92 NSCLC; above 100 µM in the test with SNB-19 CNS; 49.6 µM with KM12 colon; 42.8 µM with SF-295 CNS. Moreover, the TGI in the test with M14 melanoma came to 65 µM.
With `Cn1c(=O)c2c3ccccc3n(C)c2n(C)c1=O`, the TGI in the test with HS 578T breast, with HOP-62 NSCLC, with UACC-62 melanoma, with CCRF-CEM leukemia, with U251 CNS and with HL-60(TB) leukemia was above 100 µM throughout. Further, the TGI in the test on UO-31 renal, in the test with T-47D breast, in the test with SF-268 CNS, in the test with MDA-N, with A549 NSCLC and in the test with SW-620 colon was above 100 µM each time. For the same compound, the TGI in the test on MDA-MB-231 breast, with HOP-92 NSCLC, in the test on OVCAR-5 ovarian, with SNB-19 CNS, in the test with KM12 colon and in the test with SF-295 CNS was above 100 µM in each case. The same compound came in with a TGI with M14 melanoma above 100 µM.
